Measurements from ChEMBL document CHEMBL1145407, “Structure-activity relationships of alpha-ketooxazole inhibitors of fatty acid amide hydrolase” (J Med Chem, 2007).
pKi: −log10 of the molar value.

Target: T1, Fatty-acid amide hydrolase 1 (Rattus norvegicus, UniProt P97612)
T1 sequence (P97612 whole entry): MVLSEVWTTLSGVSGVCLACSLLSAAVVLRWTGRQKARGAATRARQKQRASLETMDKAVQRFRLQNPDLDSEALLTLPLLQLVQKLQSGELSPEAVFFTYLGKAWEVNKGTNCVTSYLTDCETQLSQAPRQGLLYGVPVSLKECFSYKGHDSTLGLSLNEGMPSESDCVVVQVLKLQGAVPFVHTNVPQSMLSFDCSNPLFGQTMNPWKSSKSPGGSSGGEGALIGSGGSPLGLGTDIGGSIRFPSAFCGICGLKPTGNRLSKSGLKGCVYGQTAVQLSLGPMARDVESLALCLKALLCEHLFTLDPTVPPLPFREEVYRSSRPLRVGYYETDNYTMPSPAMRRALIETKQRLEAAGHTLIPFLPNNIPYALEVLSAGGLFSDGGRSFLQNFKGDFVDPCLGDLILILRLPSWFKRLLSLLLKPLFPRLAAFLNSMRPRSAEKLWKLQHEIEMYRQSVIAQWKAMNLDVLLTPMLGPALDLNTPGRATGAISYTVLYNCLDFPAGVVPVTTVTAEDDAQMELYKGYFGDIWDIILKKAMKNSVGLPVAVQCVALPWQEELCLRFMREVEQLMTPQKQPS
Assay: Inhibition of rat recombinant FAAH expressed in Escherichia coli

Row | pKi | Structure (SMILES)
1 | 5.70 | OC(CCCCCc1ccccc1)C(O)c1ncc(-c2ccccn2)o1 (configuration not stated)
2 | 8.10 | O=C(CCCCC#Cc1ccccc1F)c1ncc(-c2ccccn2)o1
3 | 7.46 | O=C(CCCCCC(O)c1ccccc1)c1ncc(-c2ccccn2)o1 (configuration not stated)
4 | < 4.00 | O=C(CCC(=O)c1ncc(-c2ccccn2)o1)NCCc1ccccc1
5 | 8.32 | O=C(CCCCC#Cc1cccc([N+](=O)[O-])c1)c1ncc(-c2ccccn2)o1
6 | < 5.70 | O=C(CCCCc1ccccc1)CC(=O)c1ncc(-c2ccccn2)o1
7 | 6.00 | O=C(CCCCC[S+]([O-])c1ccccc1)c1ncc(-c2ccccn2)o1 (configuration not stated)
8 | 7.60 | COC(=O)c1ccc(C#CCCCCC(=O)c2ncc(-c3ccccn3)o2)cc1
9 | 8.00 | O=C(CCCCC#Cc1cccc(C(F)(F)F)c1)c1ncc(-c2ccccn2)o1
10 | 7.40 | CN(CCCCCC(=O)c1ncc(-c2ccccn2)o1)c1ccccc1
11 | 5.82 | O=C(CCCC(O)CCc1ccccc1)c1ncc(-c2ccccn2)o1 (configuration not stated)
12 | 7.20 | O=C(CCCOCCc1ccccc1)c1ncc(-c2ccccn2)o1
13 | 6.82 | O=C(CCCCC#Cc1ccncc1)c1ncc(-c2ccccn2)o1
14 | 6.70 | CN(CCCc1ccccc1)CCC(=O)c1ncc(-c2ccccn2)o1
15 | 7.52 | COC(=O)c1cccc(C#CCCCCC(=O)c2ncc(-c3ccccn3)o2)c1
16 | 8.30 | O=C(CCCCC#Cc1cccc(Cl)c1Cl)c1ncc(-c2ccccn2)o1
17 | 6.10 | O=C(CCl)c1ncc(-c2ccccn2)o1
18 | 8.62 | CC(C)(C)OC(=O)Nc1cccc(CCCCCCC(=O)c2ncc(-c3ccccn3)o2)c1
19 | 6.30 | O=C(CCC(O)CCCc1ccccc1)c1ncc(-c2ccccn2)o1 (configuration not stated)
20 | 6.70 | CN(CCCCC(=O)c1ncc(-c2ccccn2)o1)Cc1ccccc1
21 | 4.70 | O=C(CCCC(=O)c1ncc(-c2ccccn2)o1)NCc1ccccc1
22 | 7.85 | O=C(CCCCCOc1ccccc1)c1ncc(-c2ccccn2)o1

Row | pKi | Structure (SMILES)
23 | 7.70 | O=C(CCCCC#Cc1ccc(Cl)cc1)c1ncc(-c2ccccn2)o1
24 | 5.22 | O=C(CCCCCS(=O)(=O)c1ccccc1)c1ncc(-c2ccccn2)o1
25 | 7.77 | O=C(CCCCC#Cc1ccccc1[N+](=O)[O-])c1ncc(-c2ccccn2)o1
26 | 7.64 | CC(C)(C)OC(=O)Nc1ccc(C#CCCCCC(=O)c2ncc(-c3ccccn3)o2)cc1
27 | 7.05 | O=C(CCOCCCc1ccccc1)c1ncc(-c2ccccn2)o1
28 | 5.51 | O=C(CCCCC(=O)c1ncc(-c2ccccn2)o1)Nc1ccccc1
29 | 7.46 | O=C(CC(O)CCCCc1ccccc1)c1ncc(-c2ccccn2)o1 (configuration not stated)
30 | 5.15 | COC(=O)CCCC(=O)c1ncc(-c2ccccn2)o1
31 | 7.89 | O=C(CCCCC#Cc1ccccc1Cl)c1ncc(-c2ccccn2)o1
32 | 8.15 | O=C(CCCCC#Cc1cccc(Cl)c1)c1ncc(-c2ccccn2)o1
33 | 6.52 | O=C(CCCCC#Cc1cccnc1)c1ncc(-c2ccccn2)o1
34 | 5.46 | CN(CCCC(=O)c1ncc(-c2ccccn2)o1)CCc1ccccc1
35 | 7.44 | O=C(CCCCC#Cc1ccc(F)cc1)c1ncc(-c2ccccn2)o1
36 | < 6.22 | O=C(O)c1ccc(CCCCCCC(=O)c2ncc(-c3ccccn3)o2)cc1
37 | 7.12 | O=C(CCCCC#Cc1ccc(C(F)(F)F)cc1)c1ncc(-c2ccccn2)o1
38 | 7.51 | O=C(CCCCC#Cc1ccc([N+](=O)[O-])cc1)c1ncc(-c2ccccn2)o1
39 | < 4.00 | COC(=O)CCC(=O)c1ncc(-c2ccccn2)o1
40 | 6.70 | O=C(CCCCC(O)Cc1ccccc1)c1ncc(-c2ccccn2)o1 (configuration not stated)
41 | < 5.00 | O=C(CCCCS(=O)(=O)Cc1ccccc1)c1ncc(-c2ccccn2)o1
42 | 6.00 | O=C(C[S+]([O-])CCCCc1ccccc1)c1ncc(-c2ccccn2)o1 (configuration not stated)
43 | 5.74 | COC(=O)CCCCC(=O)c1ncc(-c2ccccn2)o1
44 | 7.80 | O=C(CCCCC#Cc1ccccc1C(F)(F)F)c1ncc(-c2ccccn2)o1

Row | Structure (SMILES) | pKi
45 | O=C(CCCC[S+]([O-])Cc1ccccc1)c1ncc(-c2ccccn2)o1 (configuration not stated) | 5.60
46 | O=C(CCCCSCc1ccccc1)c1ncc(-c2ccccn2)o1 | 7.60
47 | O=C(CCCCOCc1ccccc1)c1ncc(-c2ccccn2)o1 | 7.26
